What all share (format): cell-based
One experiment relates to Staphylococcus aureus. Kind of experiment: Agar plate disc-diffusion, antibacterial, Staphylococcus aureus. The following applies: nutrient agar, 37° C., 48 hours, DMSO zone subtracted; for inhibition zone, Staphylococcus aureus, A: A = concentration of comp. = 10,000 μL. As for the experimental part: (§1) The agar plate disc-diffusion method was applied. […] The discs were then placed onto the surface of agar plates (nutrient agar for bacteria and Sabouraud's dextrose agar for fungi) seeded with the test organism. Each plate contained 15 mL of the agar medium, previously seeded with 0.2 mL of the broth culture of each organism pregrown for 18 hours. The plates were incubated at 37° C. for 48 hours, and 72 hours for fungi. The inhibition zones was measured in mm. Discs impregnated with DMSO were used as a control, and its inhibition zone was subtracted from the tested compound actual inhibition zone.
(§2) Their antibacterial screened against gram positive bacteria namely Bacillus cereus and Staphylococcus aureus and gram-negative bacterial strains namely Pseudomonas aeruginosa and Escherichia coli, while their antifungal activity screened against Aspergillus flavus and Chrysosporium keratinophilum as shown in tables 1 and 2 using ciprofloxacin as a reference.

In the next experiment the test system is Aspergillus flavus. Kind of experiment: Agar plate disc-diffusion, antifungal, Aspergillus flavus. The following applies: Sabouraud's dextrose agar, 37° C., 72 hours, DMSO zone subtracted; for inhibition zone, Aspergillus flavus, B: B = concentration of comp. = 30,000 μL. As for the experimental part: as §1, §2
The subject of another experiment is Escherichia coli. Kind of experiment: Agar plate disc-diffusion, antibacterial, Escherichia coli. Particulars: nutrient agar, 37° C., 48 hours, DMSO zone subtracted. As for the experimental part:
as §1, §2

The test system of a further experiment is Bacillus cereus. Description: Agar plate disc-diffusion, antibacterial, Bacillus cereus. Particulars: nutrient agar, 37° C., 48 hours, DMSO zone subtracted. As for the experimental part:
as §1, §2

A further experiment relates to Pseudomonas aeruginosa. Kind of experiment: Agar plate disc-diffusion, antibacterial, Pseudomonas aeruginosa. The following applies: nutrient agar, 37° C., 48 hours, DMSO zone subtracted. As for the experimental part:
as §1, §2

Experiment [1] concerns Chrysosporium keratinophilum. Description: Agar plate disc-diffusion, antifungal, Chrysosporium keratinophilum. The following applies: Sabouraud's dextrose agar, 37° C., 72 hours, DMSO zone subtracted. As for the experimental part: The agar plate disc-diffusion method was applied. Sterilized filter papers (6 mm in diameter) were wetted with 10 μL of a solution of 5-(4,5-bis(4-bromophenyl)-2-(4-chlorophenyl)-1H-imidazol-1-yl)pentanoic acid (V) to be tested, containing 10 mg/mL in DMSO, and the discs were allowed to air dry. The discs were then placed onto the surface of agar plates (nutrient agar for bacteria and Sabouraud's dextrose agar for fungi) seeded with the test organism. Each plate contained 15 mL of the agar medium, previously seeded with 0.2 mL of the broth culture of each organism pregrown for 18 hours. The plates were incubated at 37° C. for 48 hours, and 72 hours for fungi. The inhibition zones was measured in mm. Discs impregnated with DMSO were used as a control, and its inhibition zone was subtracted from the tested compound actual inhibition zone.
as §2

Where [2] appears, read: B = concentration of comp. = 30,000 μL.
Setting [3] is: C = concentration of comp. = 50,000 μL.
The mark [4] stands for this setting: A = concentration of comp. = 10,000 μL.

Data on 2 compounds can be found in patent US11939298B1, “5-(4,5-bis(4-bromophenyl)-2-(4-chlorophenyl)-1H-imidazol-1-yl)pentanoic acid as an antimicrobial compound” (KING FAISAL UNIVERSITY, priority 2023, dated 2024).

`O=C(O)c1cn(C2CC2)c2cc(N3CCNCC3)c(F)cc2c1=O` [Cip., ciprofloxacin, reference compound]: the “inhibition zone, Staphylococcus aureus, A” value with Staphylococcus aureus came to 42 mm. The “inhibition zone, Aspergillus flavus, B” value with Aspergillus flavus worked out at 32 mm.
Regarding `O=C(O)CCCCn1c(-c2ccc(Cl)cc2)nc(-c2ccc(Br)cc2)c1-c1ccc(Br)cc1` [V, 5-(4,5-bis(4-bromophenyl)-2-(4-chlorophenyl)-1H-imidazol-1-yl)pentanoic acid], in the experiment on Staphylococcus aureus, the “inhibition zone, Staphylococcus aureus, A” value turned out to be 16 mm. In addition, the “inhibition zone, Staphylococcus aureus, B” value in the experiment on Staphylococcus aureus (setting [2]) came out at 21 mm. Moreover, the “inhibition zone, Staphylococcus aureus, C” value in the experiment on Staphylococcus aureus (setting [3]) amounted to 29 mm. Also, the “inhibition zone, Escherichia coli, A” value in the experiment on Escherichia coli (setting [4]) amounted to 28 mm. Further, the “inhibition zone, Escherichia coli, B” value in the experiment with Escherichia coli (setting [2]) was found to be 36 mm. Further, in the experiment with Escherichia coli (setting [3]), the “inhibition zone, Escherichia coli, C” value was found to be 51 mm. Further, the “inhibition zone, Aspergillus flavus, A” value in the experiment with Aspergillus flavus (A = concentration of comp. = 10,000 μg/mL) is 18 mm. In the experiment on Aspergillus flavus, the “inhibition zone, Aspergillus flavus, B” value was found to be 23 mm. In addition, the “inhibition zone, Aspergillus flavus, C” value in the experiment on Aspergillus flavus (setting [3]) was found to be 31 mm. The “inhibition zone, Bacillus Cereus, A” value in the experiment with Bacillus cereus (setting [4]) was determined as 24 mm. Moreover, the “inhibition zone, Bacillus Cereus, B” value with Bacillus cereus (setting [2]) came to 26 mm. Besides, in the experiment with Bacillus cereus (setting [3]), the “inhibition zone, Bacillus Cereus, C” value was 38 mm. Also, the “inhibition zone, Pseudomonas aeruginosa, A” value with Pseudomonas aeruginosa (A = concentration of comp. = 10 mg/mL) stood at 24 mm. The “inhibition zone, Pseudomonas aeruginosa, B” value with Pseudomonas aeruginosa (setting [2]) worked out at 30 mm. For the same compound, the “inhibition zone, Pseudomonas aeruginosa, C” value in the experiment with Pseudomonas aeruginosa (setting [3]) was determined as 44 mm. In addition, the “inhibition zone, Chrysosporium keratinophilum, A” value in experiment [1] (setting [4]) is recorded as 26 mm. In addition, in experiment [1] (setting [2]), the “inhibition zone, Chrysosporium keratinophilum, B” value is 27 mm. The “inhibition zone, Chrysosporium keratinophilum, C” value in experiment [1] (setting [3]) is 44 mm.
